The test system of test [1] is MCF-7 cells. Kind of test: Breast cancer cell viability assay (CellTiter-Glo, 5 days). It is filed as cell-based. Conditions: 5 days' compound exposure; for IC50: Homo sapiens, MCF7, 120 h. As for the experimental part: MCF-7 cells were adjusted to a concentration of 20,000 cells per mL in RPMI containing 10% FBS and 20 mM HEPES. 16 microliters of the cell suspension (320 cells) was added to each well of a 384 well plate, and the cells were incubated overnight to allow the cells to adhere. The following day an eleven point, serial semilog dilution of each compound was added to the cells in 16 μL at a final concentration ranging from 0.3-0.000003 μM. After 5 days' compound exposure, 16 μL of CellTiter-GLo (Promega, Madison Wis.) was added to the cells the relative luminescence units (RLUs) of each well was determined CellTiter-Glo added to 32 μL of medium without cells was used to obtain a background value. The Percent viability of each sample was determined as follows: (RLU sample-RLU background/RLU untreated cells-RLU background)×100=% viability.
For orientation: Cellular ATP, detected with luciferase, serves as a proxy for viable cell number.

Test [2] concerns the target T1, ER-α in MCF-7 cells (Homo sapiens, UniProt P03372).
T1 sequence (P03372 1-595): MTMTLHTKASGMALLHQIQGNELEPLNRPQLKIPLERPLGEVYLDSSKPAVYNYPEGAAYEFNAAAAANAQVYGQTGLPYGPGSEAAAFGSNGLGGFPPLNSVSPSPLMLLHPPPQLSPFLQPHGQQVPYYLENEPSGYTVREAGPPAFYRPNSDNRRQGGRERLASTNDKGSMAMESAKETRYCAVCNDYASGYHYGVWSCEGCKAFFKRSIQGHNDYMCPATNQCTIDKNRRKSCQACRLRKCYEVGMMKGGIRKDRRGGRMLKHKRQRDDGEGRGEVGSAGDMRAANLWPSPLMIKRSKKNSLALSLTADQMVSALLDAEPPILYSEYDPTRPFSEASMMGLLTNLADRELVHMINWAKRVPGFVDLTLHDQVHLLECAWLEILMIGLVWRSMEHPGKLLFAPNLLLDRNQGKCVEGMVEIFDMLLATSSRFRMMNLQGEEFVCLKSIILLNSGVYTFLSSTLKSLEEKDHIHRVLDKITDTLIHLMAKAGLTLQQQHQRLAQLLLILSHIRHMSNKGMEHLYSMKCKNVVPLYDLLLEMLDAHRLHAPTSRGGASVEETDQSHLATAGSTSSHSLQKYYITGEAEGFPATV
Kind of test: Breast cancer cell ER-α in cell western assay (SP1). On the set-up: endogenous in cells; host or cells: MCF-7. Format: cell-based. Conditions: 4 or 24 hr post compound addition; for Emax: MCF7, SP1 antibody, read-out: ER-α In Cell Western Assay (SP1) Max Response; for DC50: SP1 antibody, read-out: ER-α In Cell Western Assay (SP1) IC50. As for the experimental part:
MCF-7 cells were adjusted to a concentration of 200,000 cells per mL in RPMI containing 10% charcoal-stripped FBS and 20 mM HEPES. 16 microliters of the cell suspension (3200 cells) was added to each well of a poly-D-lysine 384 well plate, and the cells were incubated overnight to allow the cells to adhere. The following day an eleven point, serial semilog dilution of each compound was added to the cells in 16 μL at a final concentration ranging from 0.3-0.000003 μM. At 4 or 24 hr post compound addition, the cells were fixed (10% formalin in PBS) for 20 minutes. Cells were permeablized in PBS 0.1% Triton and blocked with LICOR blocking buffer (50 μl/well, 90°). The wells were then incubated overnight at 4° C. with SP1 rabbit monoclonal Ab (Thermo Scientific) diluted 1:1000 in LICOR blocking buffer/0.1% Tween-20. Wells which were treated with blocking buffer with Tween but no antibody were used as a background control. Wells were washed with 0.1% Tween-20/PBS and then incubated in goat anti-rabbit IRDye™ 800CW (LICOR Inc.; 1:1000) and DRAQ5 DNA dye (1:2000 for 2 mM stock) diluted in LICOR blocking buffer containing 0.1% Tween-20 and 0.01% SDS for 60 minutes. Cells were washed (50 μl/well, 5′ each) in 0.1% Tween-20/PBS. Plates were scanned on a LICOR Odyssey infrared imaging system. Integrated intensities in the 800 nm channel and 700 nm channel were measured to determine levels of ER and DNA respectively. Percent ER levels were determined as follows: (Integrated intensity 800 nm sample/integrated intensity 700 nm sample)/(Integrated intensity 800 nm untreated cells/integrated intensity 700 nm untreated cells)×100=% ER levels.

Consider `CC/C(=C(/c1ccc(OCCN2CCCC2)cc1)c1ccc2[nH]ncc2c1)c1ccccc1` [Compound 191, (E)-5-(2-Phenyl-1-(4-(2-(pyrrolidin-1-yl)ethoxy)phenyl)but-1-en-1-yl)-1H-indazole], for which, in test [1], the “MCF7 Viability Assay Max Response” value is given as “++ (++ = a single % value ≧ 40%)” and the IC50 was no more than 100 nM. In addition, in test [2], the Emax was no less than 40% and the DC50 is no more than 100 nM.

Consider `CC/C(=C(/c1ccc(/C=C/C(=O)O)cc1)c1ccc2[nH]ncc2c1)c1ccc(OCCCC(=O)O)cc1` [Compound 353, 4-(4-((E)-1-(4-((E)-2-Carboxyvinyl)phenyl)-1-(1H-indazol-5-yl)but-1-en-2-yl)phenoxy)butanoic acid], for which, in test [1], the “MCF7 Viability Assay Max Response” value is “+ (+ = a single % value < 40%)” and the IC50 is greater than 100 nM. Besides, in test [2], the Emax was no less than 40% and the DC50 is greater than 100 nM.

As to `CC/C(=C(/c1ccc(/C=C/C(=O)NS(C)(=O)=O)cc1)c1ccc2[nH]ncc2c1)c1ccccc1` [Compound 423, (E)-3-(4-((E)-1-(1H-Indazol-5-yl)-2-phenylbut-1-en-1-yl)phenyl)-N-(methylsulfonyl)acrylamide], in test [1], the “MCF7 Viability Assay Max Response” value is “++ (++ = a single % value ≧ 40%)” and the IC50 is no more than 100 nM. Besides, in test [2], the Emax was no less than 40% and the DC50 was no more than 100 nM.

For the molecule `CC/C(=C(/c1ccc(/C=C/C(=O)O)cc1)c1ccc2[nH]ncc2c1)c1cccnc1C` [Compound 217, (E)-3-(4-((E)-1-(1H-Indazol-5-yl)-2-(2-methylpyridin-3-yl)but-1-en-1-yl)phenyl)acrylic acid], in test [1], the “MCF7 Viability Assay Max Response” value is listed as “++ (++ = a single % value ≧ 40%)” and the IC50 was greater than 100 nM. In addition, the Emax in test [2] is no less than 40%.

Regarding `CC/C(=C(/c1ccc(/C=C/C(=O)O)cc1)c1ccc2[nH]ncc2c1)c1cccc(Oc2cnccn2)c1` [Compound 371, (E)-3-(4-((E)-1-(1H-Indazol-5-yl)-2-(3-(pyrazin-2-yloxy)phenyl)but-1-en-1-yl)phenyl)acrylic acid], in test [1], the “MCF7 Viability Assay Max Response” value is on record as “++ (++ = a single % value ≧ 40%)” and the IC50 is no more than 100 nM. Further, in test [2], the Emax was no less than 40% and the DC50 is no more than 100 nM.

`CC/C(=C(/c1ccc2cc(C(=O)O)ccc2c1)c1ccc2[nH]ncc2c1)c1ccccc1` [Compound 449, (E)-6-(1-(1H-Indazol-5-yl)-2-phenylbut-1-en-1-yl)-2-naphthoic acid]: in test [1], the “MCF7 Viability Assay Max Response” value is reported as “++ (++ = a single % value ≧ 40%)” and the IC50 was no more than 100 nM. In addition, in test [2], the Emax is no less than 40% and the DC50 is no more than 100 nM.

As for `CC/C(=C(/c1ccc(/C=C/C(=O)O)cc1)c1ccc2scnc2c1)c1cccc(Oc2ccccc2)c1` [Compound 299, (E)-3-(4-((E)-1-(Benzo[d]thiazol-5-yl)-2-(3-phenoxyphenyl)but-1-en-1-yl)phenyl)acrylic acid], in test [1], the “MCF7 Viability Assay Max Response” value is recorded as “++ (++ = a single % value ≧ 40%)” and the IC50 is greater than 100 nM. In test [2], the Emax was no less than 40% and the DC50 was no more than 100 nM.

Take `CC/C(=C(/c1ccc(/C=C/C(=O)O)cc1)c1ccc2[nH]nnc2c1)c1ccc(F)cc1Cl` [Compound 72, (E)-3-(4-((E)-1-(1H-Benzo[d][1,2,3]triazol-5-yl)-2-(2-chloro-4-fluorophenyl)but-1-en-1-yl)phenyl)acrylic acid]: in test [1], the “MCF7 Viability Assay Max Response” value is “++ (++ = a single % value ≧ 40%)” and the IC50 was no more than 100 nM. In test [2], the Emax was no less than 40% and the DC50 is no more than 100 nM.

In test [1], `CC/C(=C(/c1ccc(/C=C/C(=O)O)cc1)c1ccc2c(cnn2C(F)F)c1)c1ccc(F)cc1Cl` [Compound 401, (E)-3-(4-((E)-2-(2-Chloro-4-fluorophenyl)-1-(1-(difluoromethyl)-1H-indazol-5-yl)but-1-en-1-yl)phenyl)acrylic acid] had an IC50 greater than 100 nM.

For orientation: IC50 means the point on the concentration scale where inhibition reaches its midpoint.
